Results from article PMC6937156, “The nature of the ligand’s side chain interacting with the S1'-subsite of metallocarboxypeptidase T (from Thermoactinomyces vulgaris) determines the geometry of the tetrahedral transition complex” (PLoS ONE, 2019).

Target: T1, carboxypeptidase T (CPT) (Thermoactinomyces vulgaris, UniProt P29068)
T1 construct: mature enzyme; one molecule in asymmetric unit
Assay: inhibition of tripeptide hydrolysis, integral kinetic curves at […] nm
Format: biochemical

Ki	SMILES
340 µM	N=C(N)NCCC[C@H](NS(N)(=O)=O)C(=O)O [SArg, N-sulfamoyl-L-arginine]
3090 µM	NS(=O)(=O)N[C@@H](CCC(=O)O)C(=O)O [SGlu, N-(aminosulfonyl)-L-glutamic acid]
8.94 µM	CC(C)C[C@H](NS(N)(=O)=O)C(=O)O [SLeu, N-(aminosulfonyl)-L-leucine]
35.1 µM	NS(=O)(=O)N[C@@H](Cc1ccccc1)C(=O)O [SPhe, N-sulfamoyl-L-phenylalanine]
